# From patent US8778966B2, “Quinolinone derivatives as PARP and tank inhibitors” (Janssen Pharmaceutica, NV, priority 2007, dated 2014)
# Target: T1, TANK-2 enzyme (Homo sapiens, UniProt Q9H2K2)
# T1 construct: made in house
# T1 sequence (Q9H2K2 1-1166): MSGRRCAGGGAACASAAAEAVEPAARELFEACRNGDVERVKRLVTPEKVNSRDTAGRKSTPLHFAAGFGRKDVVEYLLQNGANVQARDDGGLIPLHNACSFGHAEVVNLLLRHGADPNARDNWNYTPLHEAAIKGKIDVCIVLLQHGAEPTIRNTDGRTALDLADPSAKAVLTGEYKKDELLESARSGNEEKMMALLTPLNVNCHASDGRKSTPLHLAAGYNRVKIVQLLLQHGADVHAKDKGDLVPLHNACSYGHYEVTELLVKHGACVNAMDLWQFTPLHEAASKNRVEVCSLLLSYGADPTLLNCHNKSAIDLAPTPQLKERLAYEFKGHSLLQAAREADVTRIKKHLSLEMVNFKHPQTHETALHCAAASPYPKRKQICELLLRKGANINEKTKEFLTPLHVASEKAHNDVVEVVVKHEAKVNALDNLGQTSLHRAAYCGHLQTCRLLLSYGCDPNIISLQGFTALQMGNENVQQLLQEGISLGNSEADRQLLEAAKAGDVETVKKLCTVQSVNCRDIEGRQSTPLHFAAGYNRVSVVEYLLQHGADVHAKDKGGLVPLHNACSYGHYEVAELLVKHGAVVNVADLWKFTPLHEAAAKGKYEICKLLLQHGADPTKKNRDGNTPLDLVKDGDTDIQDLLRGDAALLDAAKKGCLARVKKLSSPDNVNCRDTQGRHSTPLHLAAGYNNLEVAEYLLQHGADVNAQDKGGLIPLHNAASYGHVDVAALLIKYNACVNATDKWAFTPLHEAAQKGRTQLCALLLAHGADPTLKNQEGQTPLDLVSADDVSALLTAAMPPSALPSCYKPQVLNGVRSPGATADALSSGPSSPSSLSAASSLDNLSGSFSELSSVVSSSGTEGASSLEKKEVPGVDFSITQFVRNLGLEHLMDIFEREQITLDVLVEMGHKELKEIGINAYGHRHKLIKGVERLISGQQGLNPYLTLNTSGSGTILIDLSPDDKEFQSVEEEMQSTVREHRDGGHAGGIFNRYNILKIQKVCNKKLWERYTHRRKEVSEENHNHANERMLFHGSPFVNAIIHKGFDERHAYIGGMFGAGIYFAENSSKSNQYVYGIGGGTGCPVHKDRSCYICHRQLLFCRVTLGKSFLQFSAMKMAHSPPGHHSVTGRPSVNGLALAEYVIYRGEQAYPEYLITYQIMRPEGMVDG
# Experiment: In vitro Scintillation Proximity Assay (SPA) for TANK-2 inhibitory activity
# Format: biochemical
# Conditions: in vitro SPA assay TANK-2 pIC50
# Outline: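 TANK-2 (8 μg/ml final) auto-poly(ADP-ribosyl)ation with [3H]-NAD+/NAD donor was run in Ni flash plates in Tris/HCl pH 7.4 buffer with DTT and MgCl2, 120 min at room temperature, then stopped with excess NAD and scintillation-counted. Blank-corrected cpm was expressed as % of enzyme control, and IC50 was linearly interpolated and reported as pIC50.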
row,IC50 [nM],SMILES
1,158,"CCc1cc2ccc(C(C)(C#N)Cc3nc(C#N)cc(OC)n3)cc2[nH]c1=O (single isomer, unassigned) [Compound 204]"

# Same assay, conditions: read-out: in vitro SPA assay TANK-2 pIC50 (converted)
row,IC50 [nM],SMILES
1,20,"CCc1cc2c(OC)cc(C(C)(C#N)Cc3nc(OC)cc(OC)n3)cc2[nH]c1=O (single isomer, unassigned) [Compound 230]"
2,100,"CCc1cc2ccc([C@@](C)(C#N)CCOc3ccc(C#N)cc3)cc2[nH]c1=O (single isomer, unassigned) [Compound 273]"
3,63.1,"CCc1cc2ccc([C@](C)(C#N)CCOc3ccc(C#N)cc3)cc2[nH]c1=O (single isomer, unassigned) [Compound 275]"
4,126,"CCc1cc2ccc([C@](C)(C#N)Cc3cccc(/C=C/S(C)(=O)=O)c3)cc2[nH]c1=O (single isomer, unassigned) [Compound 291]"
5,126,"CCc1cc2ccc([C@@](C)(C#N)Cc3cccc(C#CCO)c3)cc2[nH]c1=O (single isomer, unassigned) [Compound 295]"
6,200,"CCc1cc2ccc([C@](C)(C#N)Cc3cccc(C#CCO)c3)cc2[nH]c1=O (single isomer, unassigned) [Compound 296]"
7,50.1,"CCc1cc2ccc([C@@](C)(C#N)Cc3cc(OC)nc(C)n3)cc2[nH]c1=O (single isomer, unassigned) [Compound 361]"
8,126,"CCc1cc2ccc([C@](C)(C#N)Cc3cc(OC)nc(C)n3)cc2[nH]c1=O (single isomer, unassigned) [Compound 362]"
9,2000,"Cc1cc2ccc([C@@](C)(C#N)C3CCc4ccccc43)cc2[nH]c1=O (single isomer, unassigned) [Compound 385]"
10,1260,"Cc1cc2ccc([C@](C)(C#N)C3CCc4ccccc43)cc2[nH]c1=O (single isomer, unassigned) [Compound 386]"
11,50.1,CCc1cc2ccc(C(C)(C#N)Cc3cccc(OCCCN4CCNCC4)c3)cc2[nH]c1=O (centres unmarked) [Compound 25]
12,251,CCc1cc2ccc(C(C#N)(Cc3ccccc3)c3ccc(C#N)cc3)cc2[nH]c1=O (centres unmarked) [Compound 26]
13,631,CCc1cc2ccc(C(C#N)(Cc3ccccc3)c3ccccc3)cc2[nH]c1=O (centres unmarked) [Compound 27]
14,31.6,CCc1cc2ccc(C(C#N)(Cc3ccccc3)C3CC3)cc2[nH]c1=O (centres unmarked) [Compound 29]
15,794,CCc1cc2ccc(C(C#N)(Cc3ccccc3)C(C)C)cc2[nH]c1=O (centres unmarked) [Compound 30]
16,251,CCCC(C#N)(Cc1ccccc1)c1ccc2cc(CC)c(=O)[nH]c2c1 (centres unmarked) [Compound 31]
17,200,CCc1cc2ccc(C(C)(C#N)Cc3cc(OC)ccc3F)cc2[nH]c1=O (centres unmarked) [Compound 171]
18,158,CCc1cc2ccc(C(C)(C#N)Cc3cccc(-c4ccc[nH]4)c3)cc2[nH]c1=O (centres unmarked) [Compound 176]
19,200,CCc1cc2ccc(C(C)(C#N)Cc3cccc(CCS(C)(=O)=O)c3)cc2[nH]c1=O (centres unmarked) [Compound 178]
20,2510,Cc1cc2ccc(C(C)(C#N)Cc3cccc(C=Cc4ccccc4)c3)cc2[nH]c1=O (centres unmarked) [Compound 179]
21,158,CCc1cc2ccc(C(C)(C#N)Cc3cccc(/C=N/OC)c3)cc2[nH]c1=O (centres unmarked) [Compound 185]
22,79.4,CCc1cc2ccc(C(C)(C#N)Cc3cccc(C(=N)NO)c3)cc2[nH]c1=O (centres unmarked) [Compound 186]
23,126,CCc1cc2ccc(C(C)(C#N)Cc3cccc(OCCCC#N)c3)cc2[nH]c1=O (centres unmarked) [Compound 194]
24,398,CCc1cc2ccc(C(C)(C#N)Cc3cccc(OCCC#N)c3)cc2[nH]c1=O (centres unmarked) [Compound 195]
25,316,C#CCOc1cccc(CC(C)(C#N)c2ccc3cc(CC)c(=O)[nH]c3c2)c1 (centres unmarked) [Compound 196]
26,63.1,CCc1cc2ccc(C(C)(C#N)COCc3ccccc3)cc2[nH]c1=O (centres unmarked) [Compound 197]
27,200,CCc1cc2ccc(C(C)(C#N)Cc3cccc(OCCS(C)(=O)=O)c3)cc2[nH]c1=O (centres unmarked) [Compound 201]
28,251,CCc1cc2ccc(C(C)(C#N)Cc3nc(Cl)cc(OC)n3)cc2[nH]c1=O (centres unmarked) [Compound 202]
